The CheMixHub ionic liquid set

Test: xn = mol fraction of the nth substance listed
Details: for electrical conductivity: frequency 3 MHz

Cn1cc[n+](CCCN)c1.F[B-](F)(F)F + CS(C)=O
101 kPa
Details	electrical conductivity [S/m]	viscosity [mPa·s]
293.15 K, x1 = 0.2997	0.537	42.06
293.15 K, x1 = 0.3997	0.334	58.56
293.15 K, x1 = 0.5999	0.151	96.13
293.15 K, x1 = 0.8998	0.032	161.7
298.15 K, x1 = 0.1003	1.08	10.17
298.15 K, x1 = 1	0.026	149.6
303.15 K, x1 = 0.2997	0.701	25.7
303.15 K, x1 = 0.7001	0.151	74.98
303.15 K, x1 = 0.8109	0.096	91.64
303.15 K, x1 = 0.8998	0.062	105.4
308.15 K, x1 = 0.8109	0.12	75.58
308.15 K, x1 = 1	0.055	100.2
313.15 K, x1 = 0.1003	1.544	5.27
313.15 K, x1 = 0.5999	0.323	40.83
313.15 K, x1 = 0.8109	0.15	62.45
318.15 K, x1 = 0.3997	0.71	19.73
318.15 K, x1 = 0.7001	0.264	42.06
323.15 K, x1 = 0.4998	0.576	22.1
323.15 K, x1 = 1	0.124	58.45
328.15 K, x1 = 0.1003	2.107	3.179
328.15 K, x1 = 0.2	1.611	6.358
328.15 K, x1 = 0.3997	0.922	14.21
333.15 K, x1 = 0.2997	1.4	8.621
333.15 K, x1 = 0.3997	–	12.05
338.15 K, x1 = 0.3997	1.17	10.36
338.15 K, x1 = 0.8109	0.381	26.89
338.15 K, x1 = 1	0.253	36.58
343.15 K, x1 = 0.1003	2.77	2.166
343.15 K, x1 = 0.5999	0.772	15.34
353.15 K, x1 = 0.3997	1.614	7.134

CCCCCC[n+]1ccn(C)c1.O=[N+]([O-])[O-] + CCCCCCCO
Details	viscosity [mPa·s]
293.15 K, 100 kPa, x1 = 0.4392	100.5

CC[n+]1ccn(C)c1.[Br-] + O
viscosity [mPa·s], 100 kPa
Details	288.15 K	298.15 K	303.15 K	308.15 K	318.15 K	333.15 K
x1 = 0.0001802	1.141	0.911	–	0.744	0.627	–
x1 = 0.0007203	1.147	0.916	–	0.748	0.632	–
x1 = 0.00126	1.152	0.923	–	0.754	0.639	–
x1 = 0.049	–	–	1.48	–	–	0.797
x1 = 0.1978	–	–	5.45	–	–	–
